Experiments:
TAK1-TAB1 = molecular target: T1, TAK1-TAB1 (Homo sapiens, UniProt O43318); experiment: TAK1-TAB1 binding inhibitory potency (LanthaScreen competitive binding assay, kinase tracer-236); conditions: 10 nM TAK1-TAB1, 100 nM kinase tracer-236; read-out: TAK1-Tab Inhibition IC50
T1 sequence (O43318 with tags, fused parts or gaps limits assumed): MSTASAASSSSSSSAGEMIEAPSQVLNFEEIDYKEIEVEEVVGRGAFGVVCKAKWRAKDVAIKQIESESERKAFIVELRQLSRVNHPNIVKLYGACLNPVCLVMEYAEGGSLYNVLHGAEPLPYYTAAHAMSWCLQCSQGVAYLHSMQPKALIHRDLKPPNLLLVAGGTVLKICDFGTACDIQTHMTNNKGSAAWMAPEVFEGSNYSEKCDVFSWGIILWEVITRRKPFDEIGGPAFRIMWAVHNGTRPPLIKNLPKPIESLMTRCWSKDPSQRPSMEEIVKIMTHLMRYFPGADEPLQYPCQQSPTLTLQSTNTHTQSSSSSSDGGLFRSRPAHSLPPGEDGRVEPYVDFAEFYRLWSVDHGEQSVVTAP
Summary of the method: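 Compounds were tested for TAK1-TAB1 binding in a 384-well LanthaScreen competitive FRET assay. TAK1-TAB1 (10 nM) and Eu-anti-his antibody (2 nM) were preincubated with compound for two hours before adding 100 nM Alexa Fluor 647 kinase tracer-236. The buffer was 20 mM HEPES pH 7.5, 10 mM MgCl2, 0.01% BSA, 0.0005% Tween-20 and 2% DMSO. IC50 came from 4-parameter logistic fits of emission ratio over an 11-point series from 20 μM to 0.34 nM.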

[1] = system: IL-6 Production in Human Peripheral Blood Mononuclear Cells (PBMC); experiment: LPS stimulated IL-6 production in PBMC cells; format: cell-based; conditions: read-out: IL-6 Production Inhibition IC50
Experimental: LPS Stimulated IL-6 Production in PBMC Cells:
Lipopolysaccharide (LPS) stimulated IL-6 Production in Human Peripheral Blood Mononuclear Cells (PBMC): The cellular efficacy of compound candidates is determined using peripheral blood mononuclear cells purified from human whole blood, based upon the methods of Burnette et al. (2009) Pharmacology, 84:42-60. PBMC produce a number of cytokines (IL6, IL8, IL1β and TNFα) in response to stimulation with LPS. To induce the production of inflammatory mediators, PBMC are plated at a final concentration of 2×10^5 cells/well in a 96 well flat bottom plate in DMEM medium supplemented with 10% fetal bovine serum, 100 units/ml penicillin and 100 μg/ml streptomycin (Gibco BRL Life Technologies). Cells are treated with or without inhibitors for 1-3 hrs then stimulated with 100 ng/ml LPS (serotype 011:B4, Sigma) for an additional 3 hrs at 37° C. with 5% CO2. The supernatants are removed and stored at −20° C. until they are to be assayed. The levels of inflammatory mediators are determined using commercial MSD cytokine kits (Meso Scale Discovery) as per the manufacturer's instructions. Standard curves are based on 7 steps of 4× serial dilutions, with a wide dynamic range of 10000 pg/ml to 2.4 pg/ml, and a blank. Lower limit of detection (LLOD) is calculated at the commonly used 3× the standard deviation of the blank.

| Structure (SMILES) | IC50 (TAK1-TAB1) | IC50 [1] |
| --- | --- | --- |
| NC(=O)/C=C/c1c[nH]c2ncc(-c3ccc(C(=O)N4CCCC4)nc3)cc12 [Example 281, (E)-3-(5-(6-(pyrrolidine-1-carbonyl)pyridin-3-yl)-1H-pyrrolo[2,3-b]pyridin-3-yl)acrylamide] | ≤ 1 µM | > 1 µM |
| CC(C)(C)C(=O)NC1CN(c2cnc3[nH]cc(/C=C/C(N)=O)c3c2)C1 [Example 282, (E)-3-(5-(3-pivalamidoazetidin-1-yl)-1H-pyrrolo[2,3-b]pyridin-3-yl)acrylamide] | > 1 µM | > 1 µM |
| CC(C)C(=O)NC1CN(c2cnc3[nH]cc(/C=C/C(N)=O)c3c2)C1 [Example 283, (E)-3-(5-(3-isobuty-ramidoazetidin-1-yl)-1H-pyrrolo[2,3-b]pyridin-3-yl)acrylamide] | ≤ 1 µM | ≤ 1 µM |
| CC(C)Oc1ccc(-c2cnc3[nH]cc(/C=C/C(N)=O)c3n2)cn1 [Example 284, (E)-3-(2-(6-isopropoxypyridin-3-yl)-5H-pyrrolo[2,3-b]pyrazin-7-yl)acrylamide] | ≤ 1 µM | ≤ 1 µM |
| N#Cc1ccc(-c2cnc3[nH]cc(/C=C/C(N)=O)c3n2)cn1 [Example 285, (E)-3-(2-(6-cyanopyridin-3-yl)-5H-pyrrolo[2,3-b]pyrazin-7-yl)acrylamide] | ≤ 1 µM | ≤ 1 µM |
| NC(=O)/C=C/c1c[nH]c2ncc(-c3cncnc3)cc12 [Example 286, (E)-3-(5-(pyrimidin-5-yl)-1H-pyrrolo[2,3-b]pyridin-3-yl)acrylamide] | ≤ 1 µM | > 1 µM |
| CSc1ncc(-c2cnc3[nH]cc(/C=C/C(N)=O)c3c2)cn1 [Example 287, (E)-3-(5-(2-(methylthio)pyrimidin-5-yl)-1H-pyrrolo[2,3-b]pyridin-3-yl)acrylamide] | ≤ 1 µM | ≤ 1 µM |
| NC(=O)/C=C/c1c[nH]c2ncc(N3CCN(C(=O)c4ncc(F)cc4F)CC3)cc12 [Example 288, (E)-3-(5-(4-(3,5-difluoropicolinoyl)piperazin-1-yl)-1H-pyrrolo[2,3-b]pyridin-3-yl)acrylamide] | ≤ 1 µM | > 1 µM |
| CC(C)(O)CN1CCN(c2cnc3[nH]cc(/C=C/C(N)=O)c3c2)CC1 [Example 289, (E)-3-(5-(4-(2-hydroxy-2-methylpropyl)piperazin-1-yl)-1H-pyrrolo[2,3-b]pyridin-3-yl)acrylamide] | ≤ 1 µM | > 1 µM |
| CC(C)(O)COc1ccc(-c2cnc3[nH]cc(/C=C/C(N)=O)c3c2)cn1 [Example 291, (E)-3-(5-(6-(2-hydroxy-2-methylpropoxy)pyridin-3-yl)-1H-pyrrolo[2,3-b]pyridin-3-yl)acrylamide] | ≤ 1 µM | ≤ 1 µM |
| CC(C)(O)Cn1cc(-c2cnc3[nH]cc(/C=C/C(N)=O)c3c2)ccc1=O [Example 292, (E) -3-(5-(1-(2-hydroxy-2-methylpropyl)-6-oxo-1,6-dihydropyridin-3-yl)-1H-pyrrolo[2,3-b]pyridin-3-yl)acrylamide] | ≤ 1 µM | > 1 µM |
| CC(=O)O[C@@H](C)CNC(=O)c1ccc(-c2cnc3[nH]cc(/C=C/C(N)=O)c3c2)cc1 [Example 293, (S,E)-1-(4-(3-(3-amino-3-oxoprop-1-en-1-yl)-1H-pyrrolo[2,3-b]pyridin-5-yl)benzamido) propan-2-yl acetate] | ≤ 1 µM | > 1 µM |
| C[C@@H](O)CNC(=O)c1ccc(-c2cnc3[nH]cc(/C=C/C(N)=O)c3c2)cc1 [Example 294, (R,E)-4-(3-(3-amino-3-oxoprop-1-en-1-yl)-1H-pyrrolo[2,3-b]pyridin-5-yl)-N-(2-hydroxypropyl) benzamide] | ≤ 1 µM | > 1 µM |
| CC(C)NC(=O)c1ccc(-c2cnc3[nH]cc(/C=C/C(N)=O)c3c2)nc1 [Example 295, (E)-6-(3-(3-amino-3-oxoprop-1-en-1-yl)-1H-pyrrolo[2,3-b]pyridin-5-yl)-N-isopropyl-nicotinamide] | ≤ 1 µM | > 1 µM |
| CN1CCC(NC(=O)c2ccc(-c3cnc4[nH]cc(/C=C/C(N)=O)c4c3)nc2)CC1 [Example 296, (E)-6-(3-(3-amino-3-oxoprop-1-en-1-yl)-1H-pyrrolo[2,3-b]pyridin-5-yl)-N-(1-methylpiperidin-4-yl)nicotinamide] | ≤ 1 µM | > 1 µM |
| NC(=O)/C=C/c1c[nH]c2ncc(N3CCN(c4ccccc4)CC3)cc12 [Example 297, (E)-3-(5-(4-phenylpiperazin-1-yl)-1H-pyrrolo[2,3-b]pyridin-3-yl)acrylamide] | ≤ 1 µM | ≤ 1 µM |
| NC(=O)/C=C/c1c[nH]c2ncc(N3CC(NC(=O)c4ccccc4)C3)cc12 [Example 298, (E)-N-(1-(3-(3-amino-3-oxoprop-1-en-1-yl)-1H-pyrrolo[2,3-b]pyridin-5-yl)azetidin-3-yl)benzamide] | ≤ 1 µM | ≤ 1 µM |
| CC(O)c1cncc(-c2cnc3[nH]cc(/C=C/C(N)=O)c3c2)c1 (stereo not drawn) [Example 299, (E)-3-(5-(5-(1-hydroxyethyl)pyridin-3-yl)-1H-pyrrolo[2,3-b]pyridin-3-yl)acrylamide] | ≤ 1 µM | > 1 µM |
